The results in this text go back to patent publication US12162890B2 (Novartis AG, priority 2015, dated 2024).

SMILES strings stand for the structures.

For this test, the target named is HEK293 cells with stable expression of the GRIN1 gene and tetracycline-inducible expression of the GRIN2B gene (NMDA receptor, NR2B) (Homo sapiens, UniProt Q13224). In words: Fluo-8 Ca2+ flux assay: reversal of Ro 25-6981-mediated suppression of the Ca2+ response to co-agonist (glutamate/glycine). Also: test concentration or dose not given here. The conditions noted are these: reversal of the Ro 25-6981 suppression of the Ca2+ response to co-agonist (glutamate/glycine). It is filed as cell-based. Background: A change in cytosolic calcium serves as a functional read-out for many receptors and channels.
Chain of HEK293 cells with stable expression of the GRIN1 gene and tetracycline-inducible expression of the GRIN2B gene (NMDA receptor, NR2B) (Q13224 27-1484, other chains not shown): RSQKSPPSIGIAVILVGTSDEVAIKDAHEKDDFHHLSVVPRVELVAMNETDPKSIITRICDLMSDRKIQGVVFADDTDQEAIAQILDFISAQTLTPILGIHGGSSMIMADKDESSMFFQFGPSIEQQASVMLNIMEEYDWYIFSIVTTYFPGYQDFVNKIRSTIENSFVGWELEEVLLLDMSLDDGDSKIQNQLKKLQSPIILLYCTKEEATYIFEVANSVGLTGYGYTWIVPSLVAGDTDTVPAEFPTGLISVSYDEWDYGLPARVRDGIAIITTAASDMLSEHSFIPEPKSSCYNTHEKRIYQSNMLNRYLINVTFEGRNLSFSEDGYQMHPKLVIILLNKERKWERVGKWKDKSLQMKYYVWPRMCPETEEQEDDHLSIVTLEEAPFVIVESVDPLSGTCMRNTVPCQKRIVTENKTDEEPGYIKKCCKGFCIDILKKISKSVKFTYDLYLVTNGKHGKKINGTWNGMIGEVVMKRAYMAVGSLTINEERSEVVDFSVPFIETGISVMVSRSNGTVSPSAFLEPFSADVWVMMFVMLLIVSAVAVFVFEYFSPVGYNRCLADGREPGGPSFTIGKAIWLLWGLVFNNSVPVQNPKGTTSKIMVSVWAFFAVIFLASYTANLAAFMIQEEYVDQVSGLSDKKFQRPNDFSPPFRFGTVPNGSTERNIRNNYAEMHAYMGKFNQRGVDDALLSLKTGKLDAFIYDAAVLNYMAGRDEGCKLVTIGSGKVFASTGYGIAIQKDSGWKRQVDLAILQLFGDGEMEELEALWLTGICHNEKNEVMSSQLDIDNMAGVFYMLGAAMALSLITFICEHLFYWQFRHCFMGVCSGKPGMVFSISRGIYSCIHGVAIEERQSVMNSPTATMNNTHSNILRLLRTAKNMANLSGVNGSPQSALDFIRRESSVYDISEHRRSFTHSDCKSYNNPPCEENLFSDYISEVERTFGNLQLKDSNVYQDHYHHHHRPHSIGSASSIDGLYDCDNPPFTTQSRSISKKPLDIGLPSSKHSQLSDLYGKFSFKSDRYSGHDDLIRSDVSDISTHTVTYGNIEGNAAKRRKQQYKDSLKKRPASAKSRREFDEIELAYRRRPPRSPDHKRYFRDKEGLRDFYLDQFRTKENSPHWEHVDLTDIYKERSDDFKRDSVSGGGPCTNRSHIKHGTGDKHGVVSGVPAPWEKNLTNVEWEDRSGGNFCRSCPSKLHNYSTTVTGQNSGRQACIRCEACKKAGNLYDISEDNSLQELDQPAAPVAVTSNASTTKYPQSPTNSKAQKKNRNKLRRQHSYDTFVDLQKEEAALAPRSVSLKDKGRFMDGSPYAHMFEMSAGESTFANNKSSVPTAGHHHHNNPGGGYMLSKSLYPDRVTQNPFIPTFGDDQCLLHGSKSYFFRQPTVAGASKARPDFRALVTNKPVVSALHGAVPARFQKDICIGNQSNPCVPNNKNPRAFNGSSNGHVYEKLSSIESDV
For the compound `O=C(Cn1ncc2scc(-c3ccc(F)c(Cl)c3)c2c1=O)N1CC(F)(F)C1` [Example 341, 3-(3-chloro-4-fluorophenyl)-5-(2-(3,3-difluoroazetidin-1-yl)-2-oxoethyl)thieno[2,3-d]pyridazin-4(5H)-one], the “Response Recovered (%)” value was determined as 8%.

Turning to `O=C(Cn1ncc2scc(-c3ccc(Cl)c(F)c3)c2c1=O)N1CCC(F)C1` (centres unmarked) [Example 342, 3-(4-chloro-3-fluorophenyl)-5-(2-(3-fluoropyrrolidin-1-yl)-2-oxoethyl)thieno[2,3-d]pyridazin-4(5H)-one], the “Response Recovered (%)” value turned out to be 4%.

On to `O=C(Cn1ncc2scc(-c3ccc(F)c(Cl)c3)c2c1=O)N1CCC(F)C1` (centres unmarked) [Example 343, 3-(3-chloro-4-fluorophenyl)-5-(2-(3-fluoropyrrolidin-1-yl)-2-oxoethyl)theino[2,3-d]pyridazin-4(5H)-one], for which the “Response Recovered (%)” value stood at 15%.

Regarding `O=C(Cn1ncc2scc(-c3ccc(Cl)c(C(F)(F)F)c3)c2c1=O)N1CCC(F)C1` (centres unmarked) [Example 344, 3-(4-chloro-3-(trifluoromethyl)phenyl)-5-(2-(3-fluoropyrrolidin-1-yl)-2-oxoethyl)thieno[2,3-d]pyridazin-4(5H)-one], the “Response Recovered (%)” value is reported as −1%.

In the case of `O=C(Cn1cnc2csc(-c3ccc(Cl)cc3)c2c1=O)N1CCCC1` [Example 345, 5-(4-chlorophenyl)-3-(2-oxo-2-(pyrrolidin-1-yl)ethyl)thieno[3,4-d]pyrimidin-4(3H)-one], the “Response Recovered (%)” value is recorded as 18%.

With `O=C(Cn1cnc2csc(-c3ccc(Cl)cc3)c2c1=O)NC1CC1` [Example 346, 2-(5-(4-chlorophenyl)-4-oxothieno[3,4-d]pyrimidin-3(4H)-yl)-N-cyclopropylacetamide], the “Response Recovered (%)” value was 0%.

For the compound `O=C(Cn1cnc2csc(-c3ccc(Cl)cc3)c2c1=O)NC1CCC1` [Example 347, 2-(5-(4-chlorophenyl)-4-oxothieno[3,4-d]pyrimidin-3-(4H)-yl)-N-cyclobutylacetamide], the “Response Recovered (%)” value was 2%.

Consider `O=C(Cn1cnc2csc(-c3ccc(Cl)cc3)c2c1=O)N1CC(F)(F)C1` [Example 348, 5-(4-chlorophenyl)-3-(2-(3,3-difluoroazetidin-1-yl)-2-oxoethyl)thieno[3,4-d]pyrimidin-4(3H)-one], for which the “Response Recovered (%)” value was found to be 26%.

As to `O=C(Cn1cnc2csc(-c3ccc(Cl)cc3)c2c1=O)N1CCC1` [Example 349, 3-(2-(azetidin-1-yl)-2-oxoethyl)-5-(4-chlorophenyl)thieno[3,4-d]pyrimidin-4(3H)-one], the “Response Recovered (%)” value is listed as 3%.

Regarding `O=C(Cn1cnc2csc(-c3ccc(Cl)cc3)c2c1=O)N1CCCCC1` [Example 350, 5-(4-chlorophenyl)-3-(2-oxo-2-(piperidin-1-yl)ethyl)thieno[3,4-d]pyrimidin-4(3H)-one], the “Response Recovered (%)” value is recorded as 0%.

For the compound `COC1CN(C(=O)Cn2cnc3csc(-c4ccc(Cl)cc4)c3c2=O)C1` [Example 351, 5-(4-chlorophenyl)-3-(2-(3-methoxyazetidin-1-yl)-2-oxoethyl)thieno[3,4-d]pyrimidin-4(3H)-one], the “Response Recovered (%)” value was determined as 1%.

For the compound `O=C(Cn1cnc2csc(-c3ccc(Cl)cc3)c2c1=O)N1CCC(O)C1` (centres unmarked) [Example 352, 5-(4-chlorophenyl)-3-(2-(3-hydroxypyrrolidin-1-yl)-2-oxoethyl)thieno[3,4-d]pyrimidin-4(3H)-one], the “Response Recovered (%)” value is on record as 7%.

Take `O=C(Cn1cnc2csc(-c3ccc(Cl)cc3)c2c1=O)N1CCC(F)(F)CC1` [Example 353, 5-(4-chlorophenyl)-3-(2-(4,4-difluoropiperidin-1-yl)-2-oxoethyl)thieno[3,4-d]pyrimidin-4(3H)one]: the “Response Recovered (%)” value stood at 1%.

For `O=C(Cn1cnc2csc(-c3ccc(Cl)cc3)c2c1=O)N1CCOCC1` [Example 354, 5-(4-chlorophenyl)-3-(2-morpholino-2-oxoethyl)thieno[3,4-d]pyrimidin-4(3H)-one], the “Response Recovered (%)” value is recorded as 1%.

In the case of `O=C(Cn1cnc2csc(-c3ccc(Cl)cc3)c2c1=O)N1CCCC1C(F)(F)F` (centres unmarked) [Example 355, 5-(4-chlorophenyl)-3-(2-oxo-2-(2-(trifluoromethyl)pyrrolidin-1-yl)ethyl)thieno[3,4-d]pyrimidin-4(3H)-one], the “Response Recovered (%)” value worked out at 10%.

For the compound `O=C(Cn1cnc2csc(-c3ccc(C(F)(F)F)cc3)c2c1=O)N1CCCC1` [Example 356, 3-(2-oxo-2-(pyrrolidin-1-yl)ethyl)-5-(4-(trifluoromethyl)phenyl)thieno[3,4-d]pyrimidin-4(3H)-one], the “Response Recovered (%)” value is listed as 11%.

On to `O=C(Cn1cnc2csc(-c3ccc(C(F)(F)F)cc3)c2c1=O)N1CCCC1C(F)(F)F` (centres unmarked) [Example 357, 3-(2-oxo-2-(2-(trifluoromethyl)pyrrolidin-1-yl)ethyl)-5-(4-(trifluoromethyl)phenyl)thieno[3,4-d]pyrimidin-4(3H)-one], for which the “Response Recovered (%)” value is recorded as 2%.

For `O=C(Cn1cnc2csc(-c3ccc(C(F)(F)F)cc3)c2c1=O)N1CC(F)(F)C1` [Example 358, 3-(2-(3,3-difluoroazetidin-1-yl)-2-oxoethyl)-5-(4-(trifluoromethyl)phenyl)thieno[3,4-d]pyrimidin-4(3H)-one], the “Response Recovered (%)” value worked out at 12%.

For `O=C(Cn1cnc2csc(-c3ccc(F)c(Cl)c3)c2c1=O)N1CCCC1` [Example 359, 5-(3-chloro-4-fluorophenyl)-3-(2-oxo-2-(pyrrolidin-1-yl)ethyl)thieno[3,4-d]pyrimidin-4(3H)-one], the “Response Recovered (%)” value is listed as 35%.

As to `O=C(Cn1cnc2csc(-c3ccc(F)c(Cl)c3)c2c1=O)N1CC(F)(F)C1` [Example 360, 5-(3-chloro-4-fluorophenyl)-3-(2-(3,3-difluoroazetidin-1-yl)-2-oxoethyl)thieno[3,4-d]pyrimidin-4(3H)-one], the “Response Recovered (%)” value was determined as 39%.

For `O=C(Cn1cnc2csc(-c3ccc(Cl)c(C(F)(F)F)c3)c2c1=O)N1CC(F)(F)C1` [Example 362, 5-(4-chloro-3-(trifluoromethyl)phenyl)-3-(2-(3,3-difluoroazetidin-1-yl)-2-oxoethyl)thieno[3,4-d]pyrimidin-4(3H)-one], the “Response Recovered (%)” value was found to be 39%.

For `O=C(Cn1cnc2csc(-c3ccc(Cl)c(F)c3)c2c1=O)N1CC(F)(F)C1` [Example 363, 5-(4-chloro-3-fluorophenyl)-3-(2-(3,3-difluoroazetidin-1-yl)-2-oxoethyl)thieno[3,4-d]pyrimidin-4(3H)-one], the “Response Recovered (%)” value was 16%.

As to `O=C(Cn1cnc2csc(-c3ccc(Cl)c(F)c3)c2c1=O)N1CCC(F)C1` (centres unmarked) [Example 364, 5-(4-chloro-3-fluorophenyl)-3-(2-(3-fluoropyrrolidin-1-yl)-2-oxoethyl)thieno[3,4-d]pyrimidin-4(3H)-one], the “Response Recovered (%)” value is 35%.

As for `O=C(Cn1cnc2csc(-c3ccc(Cl)c(F)c3)c2c1=O)N1CCC(C(F)(F)F)C1` (centres unmarked) [Example 365, 5-(4-chloro-3-fluorophenyl)-3-(2-oxo-2-(3-(trifluoromethyl)pyrrolidin-1-yl)ethyl)thieno[3,4-d]pyrimidin-4(3H)-one], the “Response Recovered (%)” value worked out at 4%.

Turning to `O=C(Cn1cnc2csc(-c3ccc(Cl)c(C(F)(F)F)c3)c2c1=O)N1CCCC1` [Example 366, 5-(4-chloro-3-(trifluoromethyl)phenyl)-3-(2-oxo-2-(pyrrolidin-1-yl)ethyl)thieno[3,4-d]pyrimidin-4(3H)-one], the “Response Recovered (%)” value is 34%.

For `O=C(Cn1cnc2csc(-c3ccc(Cl)c(F)c3)c2c1=O)N1CCCC1` [Example 367, 5-(4-chloro-3-fluorophenyl)-3-(2-oxo-2-(pyrrolidin-1-yl)ethyl)thieno[3,4-d]pyrimidin-4(3H)-one], the “Response Recovered (%)” value is recorded as 15%.

On to `O=C(Cn1cnc2c(Br)sc(-c3ccc(Cl)c(F)c3)c2c1=O)N1CCCC1` [Example 368, 7-bromo-5-(4-chloro-3-fluorophenyl)-3-(2-oxo-2-(pyrrolidin-1-yl)ethyl)thieno[3,4-d]pyrimidin-4(3H)-one], for which the “Response Recovered (%)” value is 41%.

For `Cc1sc(-c2ccc(Cl)c(F)c2)c2c(=O)n(CC(=O)N3CCCC3)cnc12` [Example 369, 5-(4-chloro-3-fluorophenyl)-7-methyl-3-(2-oxo-2-(pyrrolidin-1-yl)ethyl)thieno[3,4-d]pyrimidin-4(3H)-one], the “Response Recovered (%)” value is 33%.

With `O=C(Cn1cnc2ccn(-c3ccc(Cl)cc3)c2c1=O)N1CCC1` [Example 370, 3-(2-(azetidin-1-yl)-2-oxoethyl)-5-(4-chlorophenyl)-3H-pyrrolo[3,2-d]pyrimidin-4(5H)-one], the “Response Recovered (%)” value is on record as 4%.

In the case of `O=C(Cn1cnc2ccn(-c3ccc(Cl)cc3)c2c1=O)N1CCOCC1` [Example 371, 5-(4-chlorophenyl)-3-(2-morpholino-2-oxoethyl)-3H-pyrrolo[3,2-d]pyrimidin-4(5H)-one], the “Response Recovered (%)” value is 1%.

`COC1CN(C(=O)Cn2cnc3ccn(-c4ccc(Cl)cc4)c3c2=O)C1` [Example 372, 5-(4-chlorophenyl)-3-(2-(3-methoxyazetidin-1-yl)-2-oxoethyl)-3H-pyrrolo[3,2-d]pyrimidin-4(5H)-one]: the “Response Recovered (%)” value is reported as 1%.

Consider `O=C(Cn1cnc2ccn(-c3ccc(Cl)cc3)c2c1=O)N1CCC(F)(F)CC1` [Example 373, 5-(4-chlorophenyl)-3-(2-(4,4-difluoropiperidin-1-yl)-2-oxoethyl)-3H-pyrrolo[3,2-d]pyrimidin-4(5H)-one], for which the “Response Recovered (%)” value worked out at 3%.

Take `O=C(Cn1cnc2ccn(-c3ccc(Cl)cc3)c2c1=O)N1CC(F)(F)C1` [Example 374, 5-(4-chlorophenyl)-3-(2-(3,3-difluoroazetidin-1-yl)-2-oxoethyl)-3H-pyrrolo[3,2-d]pyrimidin-4(5H)-one]: the “Response Recovered (%)” value turned out to be 4%.

Consider `O=C(Cn1cnc2ccn(-c3ccc(Cl)cc3)c2c1=O)NC1CC1` [Example 375, 2-(5-(4-chlorophenyl)-4-oxo-4,5-dihydro-3H-pyrrolo[3,2-d]pyrimidin-3-yl)-N-cyclopropylacetamide], for which the “Response Recovered (%)” value amounted to 0%.

For the compound `O=C(Cn1cnc2ccn(-c3ccc(Cl)cc3)c2c1=O)N1CCCC1` [Example 376, 5-(4-chlorophenyl)-3-(2-oxo-2-(pyrrolidin-1-yl)ethyl)-3H-pyrrolo[3,2-d]pyrimidin-4(5H)-one], the “Response Recovered (%)” value is 3%.
